According to patent publication US20170312219A1, “METHOD OF CONTRACEPTION” (Bayer Oy, priority 2008, published 2017):

Tested on: adult cycling cynomolgus macaques
Test: animal model of intrauterine bleeding: IUS inserted in macaques, daily vaginal swabs scored for bleeding
Format: in vivo
Conditions: Group 1: IUS releasing 2 μg per day of levonorgestrel, 9 monkeys
Procedure: The effects of administering via an intrauterine system (IUS) levonorgestrel alone, or in combination with indomethacin, were tested in animal model of intrauterine bleeding. The study was conducted using three groups of adult cycling cynomolgus macaques. The macaques were monitored to record regular menstrual cycles. Scheduled (menses) and unscheduled uterine bleeding and spotting was assessed daily by vaginal swabs, and menstrual blood loss was quantified by vaginal tampons.
After about two menstrual cycles (about 60 days), the macaques were assigned to three separate groups and laparotomized on days 6-9 of the follicular phase. For each macaque, an IUS was inserted by hysterotomy into the uterine lumen and sutured in place. Group 1 included 9 monkeys that were given an IUS that released 2 μg per day of levonorgestrel. Group 2 included 8 monkeys that were given an IUS that released 2 μg per day of levonorgestrel and 10 μg per day of indomethacin. Group 3 included 7 monkeys that were given an IUS that released 2 μg per day of levonorgestrel and 30 μg per day of indomethacin.
The frequency and type of bleeding was assessed by daily vaginal swabs. FIGS. 9A-9B illustrate the results of the different types of bleedings. Gray-shaed cells represent positive swab or frank menses, which is the most heavy form of bleeding. Diagonal-lined cells represent light positive swab, which is an intermediated type of bleeding.
The gray-shaded cells that were assigned represent the heaviest form of bleeding were assigned a score of 2. The diagonal-lined cells represent an intermediate type of bleeding and were assigned a score of 1.
For evaluation of bleeding days, the first 7 days after insertion of the IUS were neglected, since the insertion procedure by surgery causes some bleeding that is unrelated to treatment effects. FIGS. 9A-9B include data for a period of 80 days after the IUS was inserted in each of the macaques.

[1] = 80 days after insertion, first 7 days neglected

Compound: C#C[C@]1(O)CC[C@H]2[C@@H]3CCC4=CC(=O)CC[C@@H]4[C@H]3CC[C@@]21CC [levonorgestrel]
- average score for each of the macaques (heaviest bleeding = 2, intermediate = 1): 11.9
- total score for all of the macaques (heaviest bleeding = 2, intermediate = 1): 107
- average number of bleeding days per macaque [1]: 8.6 days
- total number of bleeding days [1]: 77 days
